Key:
[1] = 2-63 releases 12b in aqueous buffer (HPLC); assay type: physicochemical; conditions: PBS buffer; 2-63 50 μM, PBS pH 7.4, 5% acetonitrile, 37° C., from HPLC peak area; read-out: half-life of 2-63 (decomposition, release of free ITC 12b) (converted)
Experimental: NAC conjugate 2-63 gradually releases free ITC 12b under physiological condition. The NAC conjugate of ITC could reversibly form free ITCs in aqueous solution (Zhang, Y., Carcinogenesis 2012, 33, 2-9). To test this possibility on the setting of ITC-ARi, 2-63 (50 μM) was dissolved in PBS at physiological pH (7.4), and its decomposition was monitored at 37° C. using HPLC. […] 2-63, therefore, can be viewed as a more water-soluble prodrug of 12b when it is used in cell culture or administrated in vivo. This NAC conjugation approach avoids acute/instant electrophilic insult and can constrain the concentration of electrophilic ITC within certain levels. Since non-cancerous cells usually have a larger GSH/antioxidant pool to neutralize electrophilic/oxidative attack (Trachootham, et al., Cancer Cell 2006, 10, 241-252), different tolerability to 2-63 could be seen between cancerous and noncancerous cells.
2-63 releases 12b in aqueous buffer. Samples for HPLC analysis were prepared by diluting the stock solution (50 mM in DMSO) of 2-63 in PBS buffer (10 mM, pH 7.4) containing 5% acetonitrile. The sample was immediately analyzed right after dilution. The aliquot of incubated samples (37° C.) was analyzed at indicated time points. A linear plot of the log (peak area) versus incubation time was generated to determine the half-life (T1/2) of decomposition. […]

FL AR and AR-V7 [2] = biological target: T1, FL AR and AR-V7 (Homo sapiens, UniProt P10275); experiment: Western blotting of FL AR and AR-V7 in VCaP cells; assay type: cell-based; conditions: full media, 16 h, 2-63, 12b 5 and 15 μM, Enz 10 μM
T1 construct: Whole cell lysates were subjected to Western blotting and probed with the indicated antibodies; endogenous in cells; host or cells: VCaP
T1 sequence (P10275 1-644 isoform P10275-3): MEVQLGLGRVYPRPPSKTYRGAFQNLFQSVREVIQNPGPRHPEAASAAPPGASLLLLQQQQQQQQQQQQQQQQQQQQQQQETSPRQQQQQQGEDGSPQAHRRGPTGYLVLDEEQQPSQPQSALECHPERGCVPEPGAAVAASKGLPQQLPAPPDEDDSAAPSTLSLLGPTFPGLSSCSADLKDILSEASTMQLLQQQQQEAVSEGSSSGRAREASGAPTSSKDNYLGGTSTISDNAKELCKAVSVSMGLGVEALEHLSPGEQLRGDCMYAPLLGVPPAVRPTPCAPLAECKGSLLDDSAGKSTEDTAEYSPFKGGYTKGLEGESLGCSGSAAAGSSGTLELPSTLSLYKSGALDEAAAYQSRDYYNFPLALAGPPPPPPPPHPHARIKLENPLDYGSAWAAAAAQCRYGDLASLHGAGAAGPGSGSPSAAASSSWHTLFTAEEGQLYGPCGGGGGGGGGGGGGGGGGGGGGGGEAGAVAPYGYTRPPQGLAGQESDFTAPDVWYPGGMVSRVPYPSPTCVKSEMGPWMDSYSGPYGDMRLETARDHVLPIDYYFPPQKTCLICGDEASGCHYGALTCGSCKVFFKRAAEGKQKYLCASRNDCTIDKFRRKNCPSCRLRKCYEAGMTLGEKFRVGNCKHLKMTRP
Experimental: (§1) Western Blotting. […] Proteins in cell lysates (40 μg) were separated using electrophoresis on SDS-PAGE and transferred onto PVDF (polyvinylidenedifluoride) membranes. Membranes were blocked in 5% fat-free milk followed by incubation with primary antibodies overnight at 4° C., and the secondary horseradish peroxidase-conjugated anti-rabbit or anti-mouse antibodies. The blots were developed in the Enhanced Chemiluminescence mixture and detected by ImageQuant™ LAS 4000 imaging system (GE). Density of protein bonds were calculated and analyzed by using imageJ software downloaded from the National Institute of Health website.

FL AR and AR-V7 [3] = experiment: Western blotting of FL AR and AR-V7 in VCaP cells; assay type: cell-based; conditions: 10 μM, 12 h time course
Experimental: as §1

PARP cleavage = PARP cleavage under 2-63 plus BSO in PCa cells; assay type: cell-based; conditions: 2-63 plus BSO combination, data not shown
Text: 2-63 and BSO combination induces ferroptosis in PCa cells. […] Because both ITC and BSO change redox balance, and because the significant upregulation of HO-1 by 2-63 (FIG. 21) may increase free ferrous iron (Fe2+) inside cells, ferroptosis, a recently defined non-apoptotic cell death mechanism that occurs due to ROS and iron-caused oxidative lipid damage (Stockwell, et al., Cell 2017, 171, 273-285) was explored.

[4] = test system: acetylation of α-tubulin and histone H3 (markers for HDAC6 and nuclear HDAC inhibition); experiment: Western blotting of acetylation markers in VCaP cells; assay type: cell-based; conditions: 16 h, 2-63 and 12b 5 and 15 μM, SAHA 1 μM
Experimental: as §1

Which half-life at 50 μM [1] does the source give for CC(=O)N[C@H](CSC(=S)NCCCCCCc1ccc(N2C(=S)N(c3ccc(C#N)c(C(F)(F)F)c3)C(=O)C2(C)C)cn1)C(=O)O [2-63, N-acetyl-S-((6-(5-(3-(4-cyano-3-(trifluoromethyl)phenyl)-5,5-dimethyl-4-oxo-2-thioxoimidazolidin-1-yl)pyridine-2-yl)hexyl)carbamothioyl)-D-cysteine] here?
The half-life at 50 μM was 3.4 h.

And the AR-V7 expression (FL AR and AR-V7 [2])?
The AR-V7 expression was “dose-dependently decreased”.

What about the “FL AR and AR-V7 in time course” value (FL AR and AR-V7 [3]) of the same molecule?
The value was “time-dependent decline”.

And the PARP cleavage (PARP cleavage)?
The PARP cleavage was “did not cause detectable PARP cleavage”.

And the “histone H3 acetylation” value [4]?
The value was “did not show significant effects”.

And the α-tubulin acetylation ([4]; SFN 15 μM)?
Its α-tubulin acetylation is “did not show significant effects”.

Source: patent US12133846B2, “Electrophilic androgen receptor (AR) antagonists for AR downregulation and ferroptosis induction in cancer cells” (priority 2019, dated 2024)
